Test results taken from patent US4207316A, “Novel 17-substituted 11 β-hydroxy steroids of the pregnane series, their manufacture, preparation and use” (Schering Aktiengesellschaft, priority 1978, dated 1980).
Read-outs that look alike come from different tables or passages of the source.

Assays:
[1] = tested on: paw edema (Mycobacterium butyricum suspension); assay: adjuvant edema test (systemic effectiveness); type: in vivo, SPF rats; conditions: for ED50: Mycobacterium
Procedure: The systemic effectiveness of the compounds can be determined with the aid of the adjuvant edema test as follows:
SPF rats weighing 130-150 g. are injected in the right hind paw, for producing a center of inflammation, with 0.1 ml. of a 0.5% Mycobacterium butyricum suspension (obtainable from the U.S. company Difco). Prior to injection, the paw volume of the rats is measured. Twenty-four hours after injection, the paw volume is measured once again to determine the extent of the edema. Thereafter, varying amounts of the test compound--dissolved in a mixture of 29% benzyl benzoate and 71% castor oil--are administered orally or subcutaneously to the rats. After another 24 hours, the paw volume is again determined.
The control animals are treated in the same way, except that they are injected with a benzyl benzoate-castor oil mixture free of test compound.
From the paw volumes determined, the amount of test compound required for attaining a 50% reduction in volume of the experimentally produced paw edema is calculated in the usual way.
The following tables indicate the thus-obtained test results, wherein in each case the compounds of this invention are compared with the conventional corticoids contained in commercially available preparations which are most analogous in structure.

[2] = tested on: erythema of stripped skin (vasoconstriction); assay: vasoconstriction test (topical efficacy), difference in degree of efficacy vs diflucortolone 21-valerate (DFV); type: in vivo, healthy test persons (human); conditions: 0.1 p.p.m. active agent, positive = more favorable than DFV
Procedure: The topical efficacy can be determined as follows using the vasoconstriction test.
The test was conducted on respectively eight healthy test persons of both sexes, who had not received any local corti costeroid treatment within the preceding two weeks. After the stratum corneum on the test persons' backs was removed down to the stratum lucidum (20-40 times application and tearing off of an adhesive film), respectively 0.1 g. of the preparations was applied to areas of a size of 4 cm^2 without protective dressing. To avoid the application of the identical preparation to identical skin areas, the application is done in a rotating fashion. The vasoconstriction is evaluated visually after 4 and 8 hours by the investigator in accordance with the following grades of effectiveness: 1=absolute fading; 2=minor residual erythema; 3=medium-grade erythema, reddening intensity in the central zone of stripped, untreated and undamaged skin; 4=erythema with minor fading; 5=no fading, or intensification of erythema.
The individual evaluations were averaged.
In each test series, diflucortolone 21-valerate (=6α,9α-difluoro-11β-hydroxy-16α-methyl-21-valeryloxy-1,4-pregnadiene-3,20-dione=DFV) is utilized as the reference compound.
The difference Δ of the average degrees of efficacy of DFV and of the test compound determined in the individual series of investigations is calculated in each case. Positive deviations Δ show a more favorable evaluation: negative deviations show a more unfavorable evaluation of the test compound as compared to DFV.
The tables set forth below list the observed test results obtained when treating the test persons with a preparation containing 0.1 p.p.m. of active agent.

[3] = rats, subcutaneous, 24 h after administration
[4] = sc, rats, subcutaneous, 24 h after administration, read-out: Adjuvant Edema Test ED50 s.c. (50% reduction in volume of paw edema)
[5] = rats, oral, 24 h after administration, read-out: Adjuvant Edema Test ED50 p.o. (50% reduction in volume of paw edema)
[6] = rats, oral, 24 h after administration

| Compound | Adjuvant Edema Test ED50 s.c. (50% reduction in volume of paw edema) [1, 3] | ED50 [1, 4] | Vasoconstriction Test Δ After 8 h. (difference of average degrees of efficacy of DFV and test compound) [2] | further results |
| --- | --- | --- | --- | --- |
| 11β,21-dihydroxy-17α-methoxymethoxy-16β-methyl-4-pregnene- 3,20-dione [Example 17] | 2.1 mg./kg. Animal | – | – | – |
| 11β-hydroxy-17α-methoxymethoxy-21-trimethylacetoxy-4-pregnene-3,20-dione [Example 21] | 3.0 mg./kg. Animal | – | – | – |
| CCOCO[C@]1(C(=O)CO)CC[C@H]2[C@@H]3CCC4=CC(=O)CC[C@]4(C)[C@H]3[C@@H](O)C[C@@]21C [compound 3] | – | 14.5 mg/kg | – | – |
| 21-butyryloxy-11β-hydroxy-17α-methoxymethoxy-4-pregnene-3,20-dione [Example 20] | 2.0 mg./kg. Animal | – | – | – |
| CCCC(=O)O[C@]1(C(=O)CO)CC[C@H]2[C@@H]3CCC4=CC(=O)CC[C@]4(C)[C@H]3[C@@H](O)C[C@@]21C [compound 1] | – | 13 mg/kg | – | ED50 [1, 5]: 54 mg/kg |
| 11β,21-dihydroxy-17α-(1'-methoxyethoxy)-6α-methyl-1,4-pregnadiene-3,20-dione [Example 12] | about 3 mg./kg. Animal | – | – | – |
| 11β,21-Dihydroxy-17α-methoxymethoxy-1,4-pregnadiene-3,20-dione [No. 9] | about 3 mg./kg. Animal | – | +0.4 | – |
| 21-Butyryloxy-11β-hydroxy-17α-methoxymethoxy-1,4-pregnadiene-3,20-dione [No. 12] | about 1 mg./kg. Animal | – | +0.2 | Vasoconstriction Test Δ After 4 h. (difference of average degrees of efficacy of DFV and test compound) [2]: +0.5 |
| C[C@]12C=CC(=O)C=C1CC[C@@H]1[C@@H]2[C@@H](O)C[C@@]2(C)[C@H]1CC[C@]2(O)C(=O)CO [compound 8] | – | – | – | ED50 ([1]; in Rattus norvegicus, po, 24 h, read-out: Adjuvant Edema Test ED50 p.o. (50% reduction in volume of paw edema)): 8.6 mg/kg; ED50 ([1]; in Rattus norvegicus, sc, 24 h, read-out: Adjuvant Edema Test ED50 s.c. (50% reduction in volume of paw edema)): 2.6 mg/kg |
| COCO[C@]1(C(=O)COC(C)=O)CC[C@H]2[C@@H]3CCC4=CC(=O)C=C[C@]4(C)[C@H]3[C@@H](O)C[C@@]21C [compound 10] | – | > 3 mg/kg | – | Adjuvant Edema Test, percentage in parentheses beside ED50 s.c. bound ([1]; rats, subcutaneous, at 3 mg./kg.): 25% |
| CCCOCO[C@]1(C(=O)CO)CC[C@H]2[C@@H]3CCC4=CC(=O)CC[C@]4(C)[C@H]3[C@@H](O)C[C@@]21C [compound 4] | – | ~10 mg/kg | – | – |
| 17α-Butoxymethoxy-11β,21-dihydroxy-4-pregnene-3,20-dione [No. 6] | about 1 mg./kg. Animal | – | +1.0 | Vasoconstriction Test Δ After 4 h. (difference of average degrees of efficacy of DFV and test compound) [2]: +0.9 |
| 11β-hydroxy-17α-methoxymethoxy-21-propionyloxy-4-pregnene-3,20- dione [Example 19] | 1.9 mg./kg. Animal | – | +0.5 | Vasoconstriction Test Δ After 4 h. (difference of average degrees of efficacy of DFV and test compound) [2]: +0.5 |
| 21-acetoxy-17α-methoxymethoxy-4-pregnene-3,11,20-trione [Example 24] | – | – | – | Adjuvant Edema Test ED50 s.c. (50% reduction in volume of paw edema) ([1]; rats, subcutaneous, 24 h after administration, 1440 min): 3.5 mg./kg. Animal; Adjuvant Edema Test ED50 s.c. (50% reduction in volume of paw edema) ([1]; rats, subcutaneous, 24 h after administration, listed as 25, 1440 min): 4.0 mg./kg. Animal |
| CCCCOCO[C@]1(C(=O)CO)CC[C@H]2[C@@H]3CCC4=CC(=O)CC[C@]4(C)[C@H]3[C@@H](O)C[C@@]21C [compound 6] | – | 20 mg/kg | – | – |
| 21-Acetoxy-9α-chloro-11β-hydroxy-17α-methoxymethoxy-4-pregnene-3,20-dione [No. 14] | – | – | – | Adjuvant Edema Test ED50 p.o. (50% reduction in volume of paw edema) [1, 6]: 22 mg./kg. Animal; Vasoconstriction Test Δ After 4 h. (difference of average degrees of efficacy of DFV and test compound) ([2]; listed as 26): -0.8; Vasoconstriction Test Δ After 4 h. (difference of average degrees of efficacy of DFV and test compound) ([2]; listed as 27): +0.6; Vasoconstriction Test Δ After 8 h. (difference of average degrees of efficacy of DFV and test compound) ([2]; listed as 26): -0.9; Vasoconstriction Test Δ After 8 h. (difference of average degrees of efficacy of DFV and test compound) ([2]; listed as 27): +0.6 |
| COCO[C@]1(C(=O)CO)CC[C@H]2[C@@H]3CCC4=CC(=O)CC[C@]4(C)[C@H]3[C@@H](O)C[C@@]21C [compound 2] | – | 13 mg/kg | – | ED50 [1, 5]: 67 mg/kg |
| COCO[C@]1(C(=O)CO)CC[C@H]2[C@@H]3CCC4=CC(=O)C=C[C@]4(C)[C@H]3[C@@H](O)C[C@@]21C [compound 9] | – | – | – | ED50 [1, 5]: 9.8 mg/kg |
| 21-Acetoxy-11β-hydroxy-17α-methoxymethoxy-1,4-pregnadiene-3,20-dione [No. 10] | 3.0 mg./kg. Animal | – | +1.0 | Vasoconstriction Test Δ After 4 h. (difference of average degrees of efficacy of DFV and test compound) [2]: +0.5 |
| CC(C)OCO[C@]1(C(=O)CO)CC[C@H]2[C@@H]3CCC4=CC(=O)CC[C@]4(C)[C@H]3[C@@H](O)C[C@@]21C [compound 5] | – | > 30 mg/kg | – | Adjuvant Edema Test, percentage in parentheses beside ED50 s.c. bound ([1]; rats, subcutaneous, at 30 mg./kg.): 42% |
| 11β,21-Dihydroxy-17α-propoxymethoxy-4-pregnene-3,20-dione [No. 4] | 3.2 mg./kg. Animal | – | +0.7 | Vasoconstriction Test Δ After 4 h. (difference of average degrees of efficacy of DFV and test compound) [2]: +0.4 |
| 17α-Ethoxymethoxy-11β,21-dihydroxy-4-pregnene-3,20-dione [No. 3] | 3.0 mg./kg. Animal | – | 0.0 | Adjuvant Edema Test ED50 p.o. (50% reduction in volume of paw edema) [1, 6]: 22 mg./kg. Animal; Vasoconstriction Test Δ After 4 h. (difference of average degrees of efficacy of DFV and test compound) [2]: -0.3 |
| 21-acetoxy-11β-hydroxy-17α-methoxymethoxy-4-pregnene-3,20-dione [Example 18] | 0.13 mg./kg. Animal | – | – | – |
| C[C@]12CCC(=O)C=C1CC[C@@H]1[C@@H]2[C@@H](O)C[C@@]2(C)[C@H]1CC[C@]2(OC1CCCCO1)C(=O)CO (stereo partly drawn) [compound 7] | – | 12 mg/kg | – | – |
| 6α-Fluoro-11β,21-dihydroxy-17α-methoxymethoxy-4-pregnene-3,20-dione [No. 25] | – | – | +1.3 | Adjuvant Edema Test ED50 p.o. (50% reduction in volume of paw edema) [1, 6]: about 8 mg./kg. Animal; Vasoconstriction Test Δ After 4 h. (difference of average degrees of efficacy of DFV and test compound) [2]: +1.0 |
